Measurements published in ChEMBL document CHEMBL3046846, “Synthesis of N-Alkyl-2, 3-dimethyl-5-[N-(5-halo-2-methylphenyl)carbamoyl]-6-pyrazinecarboxamides and Their Herbicidal Activity” (J Pestic Sci, 1997).

Columns and labels:
[1] = test system: Xanthium strumarium; assay: Herbicidal activity against Xanthium strumarium (cocklebur) 5000 g/ha after 2 weeks; type: functional
[2] = test system: Avena fatua; assay: Herbicidal activity against Avena fatua at 500 g/ha after 2 weeks; type: functional
[3] = test system: Avena fatua; assay: Herbicidal activity against Avena fatua at 5000 g/ha after 2 weeks; type: functional
[4] = test system: Galium spurium; assay: Herbicidal activity against Galium spurium var. echinospermon (Wally.) Hayek at 250 g/ha after 2 weeks; type: functional
[5] = test system: Glycine max; assay: Herbicidal activity against Glycine max (soybean) at 500 g/ha after 2 weeks; type: organism-based; conditions: in vivo, 336 h
[6] = test system: Avena fatua; assay: Herbicidal activity against Avena fatua at 250 g/ha after 2 weeks; type: functional
[7] = test system: Abutilon theophrasti; assay: Herbicidal activity against Abutilon theophrasti (velvetleaf) at 250 g/ha after 2 weeks; type: functional
[8] = test system: Abutilon theophrasti; assay: Herbicidal activity against Abutilon theophrasti (velvetleaf) at 5000 g/ha after 2 weeks; type: functional
[9] = test system: Galium spurium; assay: Herbicidal activity against Galium spurium var. echinospermon (Wally.) Hayek at 5000 g/ha after 2 weeks; type: functional
[10] = test system: Galium spurium; assay: Herbicidal activity against Galium spurium var. echinospermon (Wally.) Hayek at 500 g/ha after 2 weeks; type: functional
[11] = test system: Veronica persica; assay: Herbicidal activity against Veronica persica at 250 g/ha after 2 weeks; type: functional
[12] = test system: Glycine max; assay: Herbicidal activity against Glycine max (soybean) at 5000 g/ha after 2 weeks; type: organism-based; conditions: in vivo, 336 h
[13] = test system: Echinochloa crus-galli; assay: Herbicidal activity against Echinochloa crus-galli (barnyard grass) at 500 g/ha after 2 weeks; type: functional
[14] = test system: Triticum aestivum; assay: Herbicidal activity against Triticum aestivum (wheat) at 5000 g/ha after 2 weeks; type: ADME, organism-based; conditions: in vivo, 336 h
[15] = test system: Glycine max; assay: Herbicidal activity against Glycine max (soybean) at 250 g/ha after 2 weeks; type: organism-based; conditions: in vivo, 336 h
[16] = test system: Xanthium strumarium; assay: Herbicidal activity against Xanthium strumarium (cocklebur) 250 g/ha after 2 weeks; type: functional
[17] = test system: Veronica persica; assay: Herbicidal activity against Veronica persica at 5000 g/ha after 2 weeks; type: functional
[18] = test system: Echinochloa crus-galli; assay: Herbicidal activity against Echinochloa crus-galli (barnyard grass) at 5000 g/ha after 2 weeks; type: functional
[19] = test system: Abutilon theophrasti; assay: Herbicidal activity against Abutilon theophrasti (velvetleaf) at 500 g/ha after 2 weeks; type: functional
[20] = test system: Veronica persica; assay: Herbicidal activity against Veronica persica at 500 g/ha after 2 weeks; type: functional
[21] = test system: Xanthium strumarium; assay: Herbicidal activity against Xanthium strumarium (cocklebur) 500 g/ha after 2 weeks; type: functional
[22] = test system: Echinochloa crus-galli; assay: Herbicidal activity against Echinochloa crus-galli (barnyard grass) at 250 g/ha after 2 weeks; type: functional
[23] = test system: Triticum aestivum; assay: Herbicidal activity against Triticum aestivum (wheat) at 500 g/ha after 2 weeks; type: ADME, organism-based; conditions: in vivo, 336 h
[24] = test system: Triticum aestivum; assay: Herbicidal activity against Triticum aestivum (wheat) at 250 g/ha after 2 weeks; type: organism-based; conditions: in vivo, 336 h

Measured: Activity

Cc1ccc(Cl)cc1NC(=O)c1nc(C)c(C)nc1C(=O)NC(C)C
30%: [14]
50%: [3] | [11] | [16] | [21]
95%: [1] | [8] | [9] | [17] | [20]
70%: [18]
< 10%: [5] | [12] | [15] | [23] | [24]
<10%: [2] | [4] | [6] | [7] | [10] | [13] | [19] | [22]

Cc1ccc(Cl)cc1NC(=O)c1nc(C)c(C)nc1C(=O)NCCC(C)C
30%: [1] | [3]
70%: [18]
95%: [8] | [17]
< 10%: [12] | [14]
10%: [9]

Cc1ccc(Cl)cc1NC(=O)c1nc(C)c(C)nc1C(=O)NC(C)(C)C
30%: [9]
< 10%: [5] | [12] | [15] | [23] | [24]
70%: [18] | [20]
10%: [11] | [14]
95%: [1] | [8] | [17]
<10%: [2] | [3] | [4] | [6] | [7] | [10] | [13] | [16] | [19] | [21] | [22]

Cc1ccc(F)cc1NC(=O)c1nc(C)c(C)nc1C(=O)NCCC(C)C
30%: [3] | [18]
< 10%: [12]
<10%: [1] | [9]
10%: [14]
95%: [8] | [17]

CC[C@@H](C)NC(=O)c1nc(C)c(C)nc1C(=O)Nc1cc(Cl)ccc1C
70%: [11]
<10%: [2] | [4] | [6] | [7] | [10] | [13] | [16] | [19] | [21] | [22]
< 10%: [5] | [12] | [15] | [23] | [24]
30%: [3] | [14]
95%: [1] | [8] | [9] | [17] | [18] | [20]

CC[C@@H](C)NC(=O)c1nc(C)c(C)nc1C(=O)Nc1cc(F)ccc1C
< 10%: [5] | [12] | [15] | [23] | [24]
70%: [1] | [9]
95%: [8] | [17] | [19] | [20]
50%: [14] | [21]
30%: [3] | [7] | [10] | [11] | [13] | [18]
<10%: [2] | [4] | [6] | [16] | [22]

CCCCNC(=O)c1nc(C)c(C)nc1C(=O)Nc1cc(F)ccc1C
10%: [13]
50%: [1]
<10%: [2] | [3] | [4] | [6] | [7] | [10] | [16] | [19] | [21] | [22]
30%: [9] | [14] | [23]
70%: [18]
95%: [8] | [11] | [17] | [20]
< 10%: [5] | [12] | [15] | [24]

Cc1ccc(Cl)cc1NC(=O)c1nc(C)c(C)nc1C(=O)NCC(C)C
< 10%: [5] | [12] | [15] | [23] | [24]
<10%: [2] | [4] | [6] | [7] | [10] | [16] | [19] | [21] | [22]
95%: [1] | [3] | [8] | [9] | [17] | [18] | [20]
30%: [11] | [13]
70%: [14]

CCCNC(=O)c1nc(C)c(C)nc1C(=O)Nc1cc(Cl)ccc1C
< 10%: [5] | [12] | [15] | [23] | [24]
95%: [8] | [11] | [17]
<10%: [2] | [3] | [4] | [6] | [7] | [10] | [13] | [16] | [19] | [22]
50%: [9] | [18] | [21]
30%: [1] | [14]
70%: [20]

CCCCCNC(=O)c1nc(C)c(C)nc1C(=O)Nc1cc(Cl)ccc1C
<10%: [1] | [3] | [8] | [9] | [17] | [18]
< 10%: [12] | [14]

CNC(=O)c1nc(C)c(C)nc1C(=O)Nc1cc(Cl)ccc1C
10%: [9] | [14] | [18]
< 10%: [12]
<10%: [1] | [3] | [8]
95%: [17]

CCCNC(=O)c1nc(C)c(C)nc1C(=O)Nc1cc(F)ccc1C
30%: [7] | [14] | [16] | [18] | [19]
< 10%: [5] | [12] | [15] | [23] | [24]
10%: [3] | [13]
<10%: [2] | [4] | [6] | [10] | [22]
95%: [1] | [8] | [9] | [11] | [17] | [20] | [21]

CCCCCNC(=O)c1nc(C)c(C)nc1C(=O)Nc1cc(F)ccc1C
<10%: [1] | [3] | [9]
< 10%: [12] | [14]
30%: [8] | [17] | [18]

CNC(=O)c1nc(C)c(C)nc1C(=O)Nc1cc(F)ccc1C
<10%: [1] | [3] | [8] | [9] | [18]
50%: [17]
< 10%: [12] | [14]

CCC(C)NC(=O)c1nc(C)c(C)nc1C(=O)Nc1cc(F)ccc1C (racemic)
95%: [1] | [7] | [8] | [9] | [11] | [17] | [19] | [20]
50%: [14]
30%: [3] | [18] | [23]
<10%: [2] | [4] | [6] | [10] | [13] | [16] | [22]
< 10%: [5] | [12] | [15] | [24]

CCNC(=O)c1nc(C)c(C)nc1C(=O)Nc1cc(F)ccc1C
10%: [3]
95%: [17]
< 10%: [12] | [14]
50%: [8]
<10%: [9] | [18]
70%: [1]
